≈ marks a conversion by molar mass, not a printed value. Structures can show the parent of a compound that is named as a salt.
How the values were obtained:
[1] = Solubility in simulated gastric/intestinal fluids and pH media; type: physicochemical; conditions: for solubility at 0.5 h / solubility at 4 h / solubility at 24 h / solubility at 0.5 hr / solubility at 4 hr / solubility at 24 hr: thermodynamic from solid
[2] = Dissolution profiles (capsule) in pH1.6 simulated gastric fluid and pH 4 citrate buffer; type: physicochemical
Description: Dissolution profiles of the HBr salt (50 mg as free form) in a capsule compared with the free base in pH1.6 simulated gastric fluid and in pH 4 citrate buffer. The HBr salt is better.

Cc1c(F)cccc1NC(=O)Nc1ccc(Cl)c(S(=O)(=O)[C@H]2CCCNC2)c1O [HBr Salt, hydrobromide salt of the enantiomer N-{4-chloro-2-hydroxy-3-[(3S)-3-piperidinylsulfonyl]phenyl}-N′-(3-fluoro-2-methylphenyl)urea]
Solubility ([1]; Phares FaSSIF pH 6.5, 4 hr): 272 µg/mL
solubility at 0.5 h ([1]; SGF (simulated gastric fluid), pH 1.6, simulated gastric fluid, Batch 1, SGF pH 1.6, 0.5 hr): 770 µg/mL
solubility at 4 h ([1]; SGF (simulated gastric fluid), pH 1.6, simulated gastric fluid, Batch 1, SGF pH 1.6, 4 hr): 787 µg/mL
solubility at 24 h ([1]; SGF (simulated gastric fluid), pH 1.6, simulated gastric fluid, Batch 1, SGF pH 1.6, 24 hr): 795 µg/mL
solubility at 0.5 h ([1]; SGF (simulated gastric fluid), pH 1.6, simulated gastric fluid, Batch 2, SGF pH 1.6, 0.5 hr): 414 µg/mL
solubility at 4 h ([1]; SGF (simulated gastric fluid), pH 1.6, simulated gastric fluid, Batch 2, SGF pH 1.6, 4 hr): 647 µg/mL
solubility at 24 h ([1]; SGF (simulated gastric fluid), pH 1.6, simulated gastric fluid, Batch 2, SGF pH 1.6, 24 hr): 800 µg/mL
solubility at 0.5 h ([1]; SGF (simulated gastric fluid), pH 1.6, simulated gastric fluid, Batch 3, SGF pH 1.6, 0.5 hr): 757 µg/mL
Solubility compared with the free base ([1]; at higher pH's and in simulated intestinal fluids): higher than the free base
solubility at 0.5 hr ([1]; fasted-state simulated intestinal fluid (Phares FaSSIF), pH 6.5, fassif, Batch 1, Phares FaSSif pH 6.5, 0.5 hr): 420 µg/mL
solubility at 4 hr ([1]; fasted-state simulated intestinal fluid (Phares FaSSIF), pH 6.5, fassif, Batch 1, Phares FaSSif pH 6.5, 4 hr): 384 µg/mL
solubility at 24 hr ([1]; fasted-state simulated intestinal fluid (Phares FaSSIF), pH 6.5, fassif, Batch 1, Phares FaSSif pH 6.5, 24 hr): 64 µg/mL
solubility at 0.5 hr ([1]; fasted-state simulated intestinal fluid (Phares FaSSIF), pH 6.5, fassif, Batch 2, Phares FaSSif pH 6.5, 0.5 hr): 270 µg/mL
solubility at 4 hr ([1]; fasted-state simulated intestinal fluid (Phares FaSSIF), pH 6.5, fassif, Batch 2, Phares FaSSif pH 6.5, 4 hr): 379 µg/mL
solubility at 24 hr ([1]; fasted-state simulated intestinal fluid (Phares FaSSIF), pH 6.5, fassif, Batch 2, Phares FaSSif pH 6.5, 24 hr): 79 µg/mL
solubility at 0.5 hr ([1]; fasted-state simulated intestinal fluid (Phares FaSSIF), pH 6.5, fassif, Batch 3, Phares FaSSif pH 6.5, 0.5 hr): 459 µg/mL
solubility at 4 hr ([1]; fasted-state simulated intestinal fluid (Phares FaSSIF), pH 6.5, fassif, Batch 3, Phares FaSSif pH 6.5, 4 hr): 227 µg/mL
solubility at 24 hr ([1]; fasted-state simulated intestinal fluid (Phares FaSSIF), pH 6.5, fassif, Batch 3, Phares FaSSif pH 6.5, 24 hr): 56 µg/mL
solubility at 0.5 hr ([1]; fed-state simulated intestinal fluid (Phares FeSSIF), fessif, Batch 1, Phares FeSSIF pH .5, 0.5 hr): 838 µg/mL
solubility at 4 hr ([1]; fed-state simulated intestinal fluid (Phares FeSSIF), fessif, Batch 1, Phares FeSSIF pH .5, 4 hr): 833 µg/mL
solubility at 24 hr ([1]; fed-state simulated intestinal fluid (Phares FeSSIF), fessif, Batch 1, Phares FeSSIF pH .5, 24 hr): 788 µg/mL
solubility at 0.5 hr ([1]; fed-state simulated intestinal fluid (Phares FeSSIF), fessif, Batch 2, Phares FeSSIF pH .5, 0.5 hr): 478 µg/mL
solubility at 4 hr ([1]; fed-state simulated intestinal fluid (Phares FeSSIF), fessif, Batch 2, Phares FeSSIF pH .5, 4 hr): 846 µg/mL
solubility at 24 hr ([1]; fed-state simulated intestinal fluid (Phares FeSSIF), fessif, Batch 2, Phares FeSSIF pH .5, 24 hr): 834 µg/mL
solubility at 0.5 hr ([1]; fed-state simulated intestinal fluid (Phares FeSSIF), fessif, Batch 3, Phares FeSSIF pH .5, 0.5 hr): 724 µg/mL
solubility at 4 hr ([1]; fed-state simulated intestinal fluid (Phares FeSSIF), pH 6.5, fessif, Batch 3, Phares FeSSIF pH .5, 4 hr): 841 µg/mL
solubility at 24 hr ([1]; fed-state simulated intestinal fluid (Phares FeSSIF), pH 6.5, fessif, Batch 3, Phares FeSSIF pH .5, 24 hr): 340 µg/mL
Solubility at higher pH as compared to the free base ([1]; higher pH): improved
solubility at 0.5 h ([1]; pH 2, aqueous buffer, Batch 3, pH 2.0, 0.5 hr): 605 µg/mL
solubility at 4 h ([1]; pH 2, aqueous buffer, Batch 3, pH 2.0, 4 hr): 635 µg/mL
solubility at 24 h ([1]; pH 2, aqueous buffer, Batch 3, pH 2.0, 24 hr): 609 µg/mL
solubility at 24 h ([1]; pH 2, aqueous buffer, pH 2.0, 24 hr): 609 µg/mL
solubility at 0.5 h ([1]; pH 4, aqueous buffer, Batch 3, pH 4.0, 0.5 hr): 685 µg/mL
solubility at 4 h ([1]; pH 4, aqueous buffer, Batch 3, pH 4.0, 4 hr): 670 µg/mL
solubility at 24 h ([1]; pH 4, aqueous buffer, Batch 3, pH 4.0, 24 hr): 609 µg/mL
solubility at 4 h ([1]; pH 4, aqueous buffer, pH 4.0, 4 hr): 670 µg/mL
solubility at 0.5 h ([1]; pH 6, aqueous buffer, Batch 3, pH 6.0, 0.5 hr): 194 µg/mL
solubility at 4 h ([1]; pH 6, aqueous buffer, Batch 3, pH 6.0, 4 hr): 13 µg/mL
solubility at 24 h ([1]; pH 6, aqueous buffer, Batch 3, pH 6.0, 24 hr): 5 µg/mL
solubility at 0.5 h ([1]; pH 8, aqueous buffer, Batch 3, pH 8.0, 0.5 hr): 52 µg/mL
solubility at 4 h ([1]; pH 8, aqueous buffer, Batch 3, pH 8.0, 4 hr): 13 µg/mL
solubility at 24 h ([1]; pH 8, aqueous buffer, Batch 3, pH 8.0, 24 hr): 8 µg/mL
solubility at 0.5 h ([1]; pH 8, aqueous buffer, pH 8.0, 0.5 hr): 52 µg/mL
solubility at 4 h ([1]; pH 8, aqueous buffer, pH 8.0, 4 hr): 13 µg/mL
solubility at 24 h ([1]; pH 8, aqueous buffer, pH 8.0, 24 hr): 8 µg/mL
solubility at 4 hr ([1]; simulated gastric fluid (SGF), pH 1.6, simulated gastric fluid, Batch 3, SGF pH 1.6, 4 hr): 795 µg/mL
solubility at 24 hr ([1]; simulated gastric fluid (SGF), pH 1.6, simulated gastric fluid, Batch 3, SGF pH 1.6, 24 hr): 779 µg/mL
Solubility in simulated intestinal fluids over time ([1]; simulated intestinal fluids, compared with free base): does reduce with time but is still much higher than the equivalent free base solubility
Dissolution profile ([2]; 50 mg as free form in a capsule, pH1.6 simulated gastric fluid and pH 4 citrate buffer, FIGS. 1 and 2): better
Dissolution rate at low gastric pH ([2]; FIG. 1, low gastric pH): enhanced dissolution rate without gelling
Rate of dissolution at an elevated gastric pH ([2]; FIG. 2, elevated gastric pH): greatest rate of dissolution
Dissolution profile at higher pH as compared to the free base ([2]; higher pH): improved

Cc1c(F)cccc1NC(=O)Nc1ccc(Cl)c(S(=O)(=O)[C@H]2CCCNC2)c1O [Micronised free base, N-{4-chloro-2-hydroxy-3-[(3S)-3-piperidinylsulfonyl]phenyl}-N′-(3-fluoro-2-methylphenyl) urea, reference compound]
Solubility ([1]; Phares FaSSIF pH 6.5, 0.5 hr): 9 µg/mL (≈ 20.4 µM)
Solubility ([1]; Phares FaSSIF pH 6.5, 4 hr): 18 µg/mL (≈ 40.7 µM)
Solubility ([1]; Phares FaSSIF pH 6.5, 24 hr): 10 µg/mL (≈ 22.6 µM)
Solubility ([1]; Phares FeSSIF pH 6.5, 0.5 hr): 19 µg/mL (≈ 43 µM)
Solubility ([1]; Phares FeSSIF pH 6.5, 4 hr): 24 µg/mL (≈ 54.3 µM)
Solubility ([1]; Phares FeSSIF pH 6.5, 24 hr): 25 µg/mL (≈ 56.6 µM)
solubility at 0.5 h ([1]; SGF (simulated gastric fluid), pH 1.6, simulated gastric fluid, SGF pH1.6, 0.5 hr): 715 µg/mL (≈ 1620 µM)
solubility at 4 h ([1]; SGF (simulated gastric fluid), pH 1.6, simulated gastric fluid, SGF pH1.6, 4 hr): 808 µg/mL (≈ 1830 µM)
solubility at 24 h ([1]; SGF (simulated gastric fluid), pH 1.6, simulated gastric fluid, SGF pH1.6, 24 hr): 842 µg/mL (≈ 1910 µM)
Solubility ([1]; pH 2.0, 24 hr): 697 µg/mL (≈ 1580 µM)
solubility at 0.5 h ([1]; pH 2, aqueous buffer, pH 2.0, 0.5 hr): 601 µg/mL (≈ 1360 µM)
solubility at 4 h ([1]; pH 2, aqueous buffer, pH 2.0, 4 hr): 662 µg/mL (≈ 1500 µM)
Solubility ([1]; pH 4.0, 0.5 hr): 21 µg/mL (≈ 47.5 µM)
Solubility ([1]; pH 4.0, 4 hr): 23 µg/mL (≈ 52 µM)
Solubility ([1]; pH 4.0, 24 hr): 24 µg/mL (≈ 54.3 µM)
solubility at 24 h ([1]; pH 6, aqueous buffer, pH 6.0, 24 hr): 4 µg/mL (≈ 9.05 µM)
Solubility ([1]; pH 8.0, 0.5 hr): 5 µg/mL (≈ 11.3 µM)
Solubility ([1]; pH 8.0, 4 hr): 5 µg/mL (≈ 11.3 µM)
Solubility ([1]; pH 8.0, 24 hr): 5 µg/mL (≈ 11.3 µM)

Reference: patent US9809540B2, “Hydrobromide salt of N-(4-chloro-2-hydroxy-3-((3S)-3-piperidinylsulfonyl)phenyl-N'-(3-fluoro-2-methylphenyl)urea” (GlaxoSmithKline Intellectual Property (No.2) Limited, priority 2013, dated 2017)
